Among the data in patent US7544693B2 (priority 2003, dated 2009) are Kd values, retold here.

The assay addresses α7 nAChR subtype (Rattus norvegicus, UniProt Q05941). Format: binding. The conditions noted are these: read-out: KD of radioligand (saturation curves, one site model).

pKd: −log10 of the molar value.

Chain of α7 nAChR subtype (Q05941 23-502 limits assumed): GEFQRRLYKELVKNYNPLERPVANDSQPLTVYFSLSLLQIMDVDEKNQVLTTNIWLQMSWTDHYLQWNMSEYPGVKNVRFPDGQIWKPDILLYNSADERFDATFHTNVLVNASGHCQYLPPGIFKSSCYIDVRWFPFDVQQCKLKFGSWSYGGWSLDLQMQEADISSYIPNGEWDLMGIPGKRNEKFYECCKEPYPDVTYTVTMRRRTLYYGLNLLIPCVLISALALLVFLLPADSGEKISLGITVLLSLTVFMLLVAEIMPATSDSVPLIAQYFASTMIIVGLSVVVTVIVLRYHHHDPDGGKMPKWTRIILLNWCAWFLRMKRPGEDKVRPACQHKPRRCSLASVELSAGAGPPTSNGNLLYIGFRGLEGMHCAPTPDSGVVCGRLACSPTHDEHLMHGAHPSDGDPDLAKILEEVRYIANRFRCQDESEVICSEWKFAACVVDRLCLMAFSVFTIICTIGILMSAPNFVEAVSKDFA

On to [^125I]-α-Bungarotoxin [[^125I]-α-BTX], for which the pKd is 8.78.
